Measured values: patent US20250082624A1, “METHODS OF TREATING COGNITIVE IMPAIRMENT” (NeuroTherapia, Inc., priority 2023, published 2025)
“And” between values parts separate entries of the source, which are not always exact repeats. Identical values can stand only once. “Also recorded” adds a separate entry of the source.

Assay: Phase 1b MAD plasma pharmacokinetics, non-compartmental analysis
Format: in vivo, human
Description: Methods: All study procedures were approved by the IRB, and informed consent was obtained. Three cohorts of volunteers 45-80 years of age with well-controlled comorbidities (NOAD) and one cohort of AD patients diagnosed with cognitive impairment consistent with prodromal AD per International Working Group criteria or mild AD per National Institute on Aging—Alzheimer's Association criteria (n=6 active, 2 placebo per cohort) were enrolled. Participants were admitted to the study site for the duration of the dosing and returned 7-12 days after the last dose for a safety visit. Participants received NTRX-07 (10, 30, or 90 mg) or a placebo in a double-blinded randomization orally once daily for seven days. Subjects were assessed for changes in vital signs, including maneuvers to induce lightheadedness, electrocardiograms, 24-hour electroencephalograms (EEG), and safety laboratory studies. The second cohort returned and received a single repeat dose after a standard high-fat meal. The AD cohort also underwent cognitive testing and had blood samples for biomarkers drawn. Subjects had PK sampling done after the first and final dose of the study drug. An independent safety review committee conducted a blinded safety review of adverse events and plasma levels between each cohort.
All subjects had PK sampling done after the first and final dose of the study drug.
(§1) Raw bioanalytical data were received from Nuvisan following analysis of plasma samples from each of four cohorts. PK parameters were calculated by noncompartmental analysis using standard equations. Specifically, area under the plasma concentration versus time curve (AUC) was calculated using the trapezoid rule. Maximal plasma concentration (Cmax) and time of maximal plasma concentration (Tmax) were taken directly from the data. Clearance divided by bioavailability (Cl/F) was calculated as the dose divided by the AUC. Apparent volume of distribution over bioavailability (Vd/F) was calculated as dose divided by Cmax.
With oral administration of the dose every 24 hours for 7 days, blood samples were taken over a 24-hour interval on Days 1 and 7 and before and after dosing on Day 3.
as §1, with “on Oct. 27, 2022. […]” for “following analysis of plasma samples from each of four cohorts. PK parameters were calculated by noncompartmental analysis using standard equations.”
as §1, with “on Nov. 24, 2022. […]” for “following analysis of plasma samples from each of four cohorts. PK parameters were calculated by noncompartmental analysis using standard equations.”
as §1, with “on Dec. 19, 2022. […]” for “following analysis of plasma samples from each of four cohorts. PK parameters were calculated by noncompartmental analysis using standard equations.”
Raw bioanalytical data were received from Nuvisan on Jun. 30, 2023. […] Specifically, area under the plasma concentration versus time curve (AUC) was calculated using the trapezoid rule. Maximal plasma concentration (Cmax) and time of maximal plasma concentration (Tmax) were taken directly from the data. […]

[1] = Table 9: Cohort A, 10 mg QD oral, Day 1, individual subjects
[2] = Table 10: Cohort A, 10 mg QD oral, Day 7, individual subjects
[3] = Table 11: Cohort B, 30 mg QD oral, Day 1, individual subjects
[4] = Table 12: Cohort B, 30 mg QD oral, Day 7, individual subjects
[5] = Table 13: Cohort B Fed, 30 mg oral, fed state, individual subjects
[6] = Table 14: Cohort C, 90 mg QD oral, Day 1, individual subjects
[7] = Table 15: Cohort C, 90 mg QD oral, Day 7, individual subjects
[8] = Table 16: Cohort D (AD), 90 mg QD oral, Day 1, individual subjects
[9] = Table 17: Cohort D (AD), 90 mg QD oral, Day 7, individual subjects

For `CC1(Cc2ccccc2)COc2cc(C(=O)N3CCCCC3)ccc21` (centres unmarked) [NTRX-07, 3-benzyl-3-methyl-2,3-dihydrobenzofuran-6-carboxylic acid-piperidine amide], the “Food effect on Cmax” value (30 mg after standard high-fat meal vs fasted) was “decreased Cmax; also recorded: muting of Cmax”, the “Plasma levels vs target / predicted efficacious levels” value (90 mg dose, allometric scaling of preclinical data) was “within the target ranges; also recorded: Blood levels equivalent to those that were efficacious in animal models of AD; also recorded: consistent with levels predicted to be efficacious” and the “Dose linearity of PK” value (10-90 mg QD) was “PK is linear across this dose range”. For the same compound, the “Dose linearity of PK (interim analyses)” value (40, 120 and 360 mg SDD QD doses) was “Good dose linearity; also recorded: linear; also recorded: Dose linearity was observed”, the “Accumulation over seven days of dosing” value (Cohort A, 40 mg SDD QD) was “little or no accumulation” and the “Accumulation over seven days of dosing” value (Cohort B, 120 mg SDD QD) was “little or no accumulation”. The “Accumulation over seven days of dosing” value (Cohort C, 360 mg SDD QD) was “little or no accumulation”, the “Average of Cl/F” value (Cohort D AD patients, 90 mg QD oral, Day 1, mean ± SD) was 62 ± 19 L/h and the AUClast [1] was 31.6 ng·h/mL and 66.2 ng·h/mL and 131.4 ng·h/mL and 33.4 ng·h/mL and 126.9 ng·h/mL and 83.1 ng·h/mL. For the same compound, the Cl/F [1] was 316.3 L/h and 151.1 L/h and 76.1 L/h and 299.0 L/h and 78.8 L/h and 120.4 L/h, the Cmax [1] was 24.2 ng/mL and 45.0 ng/mL and 36.7 ng/mL and 18.2 ng/mL and 52.6 ng/mL and 37.0 ng/mL and the Tmax [1] was 1.0 h. The Cl/F (Table 9: Cohort A, 10 mg QD oral, Day 1, mean ± S.D.) was 174 ± 108 L/h, the AUC24 h [2] was 47.8 ng·h/mL and 88.4 ng·h/mL and 223.8 ng·h/mL and 39.5 ng·h/mL and 80.4 ng·h/mL and 62.9 ng·h/mL and the Cl/F [2] was 209.3 L/h and 113.2 L/h and 44.7 L/h and 253.4 L/h and 124.4 L/h and 158.9 L/h. The Cmax [2] was 29.6 ng/mL and 39.4 ng/mL and 63.6 ng/mL and 19.6 ng/mL and 46.7 ng/mL and 27.1 ng/mL, the Tmax [2] was 1.0 h and the Cl/F (Table 10: Cohort A, 10 mg QD oral, Day 7, mean ± S.D.) was 151 ± 74 L/h. For the same compound, the AUClast [3] was 141.9 ng·h/mL and 462.4 ng·h/mL and 716.1 ng·h/mL and 369.3 ng·h/mL and 222.6 ng·h/mL and 92.5 ng·h/mL and 293.8 ng·h/mL, the Cl/F [3] was 211.4 L/h and 64.9 L/h and 41.9 L/h and 81.2 L/h and 134.7 L/h and 324.4 L/h and 102.1 L/h and the Cmax [3] was 60.8 ng/mL and 93.9 ng/mL and 209 ng/mL and 127 ng/mL and 153 ng/mL and 47.9 ng/mL and 70.6 ng/mL. For the same compound, the Tmax [3] was 1.0 h (3×) and 2.0 h, the Cl/F (Table 11: Cohort B, 30 mg QD oral, Day 1, mean ± S.D.) was 137 ± 99 L/h and the AUClast [4] was 113 ng·h/mL and 581 ng·h/mL and 286 ng·h/mL and 212 ng·h/mL and 61 ng·h/mL and 166 ng·h/mL. For the same compound, the Cl/F [4] was 265.0 L/h and 51.7 L/h and 105.0 L/h and 141.2 L/h and 492.7 L/h and 181.3 L/h, the Cmax [4] was 92.9 ng/mL and 236 ng/mL and 127 ng/mL and 186 ng/mL and 42.4 ng/mL and 37.9 ng/mL and the Tmax [4] was 1 h. For the same compound, the Cl/F (Table 12: Cohort B, 30 mg QD oral, Day 7, mean ± S.D.) was 206 ± 176 L/h, the AUClast [5] was 421 ng·h/mL and 944 ng·h/mL and 471 ng·h/mL and 347 ng·h/mL and 110 ng·h/mL and 312 ng·h/mL and 124 ng·h/mL and 364 ng·h/mL and the Cl/F [5] was 71.2 L/h and 31.8 L/h and 63.7 L/h and 86.4 L/h and 272.1 L/h and 96.3 L/h and 242.3 L/h and 82.5 L/h. The Cmax [5] was 42 ng/mL and 95.5 ng/mL and 39.6 ng/mL and 32.3 ng/mL and 66.8 ng/mL and 20.3 ng/mL and 58.4 ng/mL, the Tmax [5] was 1 h (2×) and 3 h (2×) and 1.5 h (3×) and 6 h and the Cl/F (Table 13: Cohort B Fed, 30 mg oral, fed state, mean ± S.D.) was 123 ± 94 L/h. For the same compound, the AUC24 h [6] was 1629 ng·h/mL and 857 ng·h/mL and 925 ng·h/mL and 657 ng·h/mL and 1730 ng·h/mL and 1807 ng·h/mL, the Cl/F [6] was 55.2 L/h and 105.1 L/h and 97.3 L/h and 137.0 L/h and 52.0 L/h and 49.8 L/h and the Cmax [6] was 449 ng/mL and 350 ng/mL and 337 ng/mL and 92.4 ng/mL and 713 ng/mL and 456 ng/mL. For the same compound, the Tmax [6] was 1.5 h (3×) and 8 h and 1 h, the Cl/F (Table 14: Cohort C, 90 mg QD oral, Day 1, mean ± S.D.) was 83 ± 36 L/h and the AUC24 h [7] was 783 ng·h/mL and 604 ng·h/mL and 318 ng·h/mL and 516 ng·h/mL and 876 ng·h/mL and 1349 ng·h/mL. The Cl/F [7] was 115.0 L/h and 149.1 L/h and 283.5 L/h and 174.4 L/h and 102.7 L/h and 66.7 L/h, the Cmax [7] was 167 ng/mL and 230 ng/mL and 155 ng/mL and 114 ng/mL and 105 ng/mL and 361 ng/mL and the Tmax [7] was 2 h and 1.5 h and 3 h. The Cl/F (Table 15: Cohort C, 90 mg QD oral, Day 7, mean ± S.D.) was 149 ± 76 L/h, the AUClast [8] was 1004 ng·h/mL and 1255 ng·h/mL and 2727 ng·h/mL and 1349 ng·h/mL and 1580 ng·h/mL and 1422 ng·h/mL and the Cl/F [8] was 89.6 L/h and 71.7 L/h and 33.0 L/h and 66.7 L/h and 57.0 L/h and 63.3 L/h. For the same compound, the Cmax [8] was 234 ng/mL and 491 ng/mL and 685 ng/mL and 435 ng/mL and 434 ng/mL and 587 ng/mL, the Tmax [8] was 2 h and 1 h (2×) and 1.5 h and the Cl/F (Table 16: Cohort D (AD), 90 mg QD oral, Day 1, mean ± S.D.) was 64 ± 19 L/h. For the same compound, the AUC24 h [9] was 1067 ng·h/mL and 994 ng·h/mL and 856 ng·h/mL and 608 ng·h/mL and 689 ng·h/mL and the Cl/F [9] was 144.6 L/h and 84.4 L/h and 90.5 L/h and 105.2 L/h and 148.0 L/h and 130.6 L/h.
